Entries after “also recorded” stand apart in the source; their conditions may differ.
Experiments:
[1] = test system: K. oxytoca; experiment: Biofilm prevention in vitro assay (crystal violet, static); type: cell-based, Klebsiella oxytoca; conditions: 18 h; for reduction of K. oxytoca biofilm formation at 112.5 µg/mL: synthetic peptide at highest concentration 112.5 µg/mL
Protocol: (§1) The opportunistic pathogenic bacteria K. oxytoca (DSM 7342, M5a1-type strain), P. aeruginosa PAO1 (DSM 1707, pathogenic-type strain), S. epidermidis RP62A (DSM 28319, clinical isolate from catheter sepsis), and S. aureus (DSM 11823, clinical isolate) were grown in 5 mL LB medium overnight at below-indicated temperatures. The cell concentrations of the overnight cultures were analyzed with Neubauer cell counting and set to 3 × 10^8 cells/mL using GC minimal medium (with 1% (v/v) glycerol and 0.3% (w/v) casamino acids) for K. oxytoca and Caso bouillon (17 g/L casein peptone, 3 g/L soybean peptone, 5 g/L NaCl, 2.5 g/L K2HPO4, and 2.5 g/L glucose) for the remaining strains in the crystal violet assay. Cultures were aliquoted in 96-well plates (180/195 µL for each cavity). Cell-free size-fractionated cell extracts (20 µL) and synthesized peptides (various concentrations, 5 µL) were added to the cultures. MTPs were closed with gas-permeable membranes (Breathe-Easy®, Diversified Biotech, Dedham, MA, USA) and incubated at 37 °C (P. aeruginosa, S. aureus, and S. epidermidis) or 30 °C (K. oxytoca) for 18 h without shaking. Three biological replicates were performed, each with eight technical replicates. Medium controls were performed for normalization. Biofilm formation was monitored and quantified using the crystal violet assay. Following an 18 h incubation period, the cell cultures were removed, and the wells underwent two washes with H2O. Biofilms that developed and adhered to the surfaces were subjected to staining using 200 μL of a 0.1% crystal violet solution (Carl Roth, Karlsruhe, Germany) for 10 min at room temperature (RT). The stained biofilms were left to air dry after eliminating the crystal violet solution through two H2O washes. A total of 200 μL of 96% ethanol was introduced into each stained well to solubilize the dye, and incubation at RT for 15 min followed. Biofilm formation was assessed by measuring the absorbance of resolved crystal violet at 590 nm with the plate reader Spectra max Plus 384 (Molecular Devices, Ismaning; Germany). The screening procedure is depicted in Figure S1.

[2] = test system: S. epidermidis; experiment: Growth of planktonic-growing pathogens (turbidity at 600 nm); type: cell-based, Staphylococcus epidermidis; conditions: 112.5 µg/mL peptide, LB, 18 h, 80 rpm, 37 °C; mean of 2 biological x 8 technical replicates; control 1.3398
Protocol: (§2) In addition, the potential growth-inhibiting effects of synthetic peptides were tested on planktonic-growing pathogens. Again, 3 × 10^8 cells/mL diluted in LB medium were aliquoted in 96-well plates (200 µL for each cavity). Synthetic peptides were added to two selected final concentrations of 3.5 µg/mL and 112.5 µg/mL at the beginning of the experiment. MTPs were closed with gas-permeable membranes and gently shaken at 80 rpm and 37 °C (P. aeruginosa, S. aureus, and S. epidermidis) or 30 °C (K. oxytoca) for 18 h. A comparative endpoint determination (growth control, peptide control IDR-1018, and identified peptides) of the turbidity at 600 nm was measured with plate reader Spectra max Plus 384. An unpaired t-test was conducted as a statistical hypothesis test to determine the significance (p-value) of growth differences.

[3] = test system: S. epidermidis RP62A; experiment: Biofilm prevention in vitro assay (crystal violet, static); type: cell-based, Staphylococcus epidermidis; conditions: 18 h; for effect on S. epidermidis biofilm formation (in words) / reduction of S. epidermidis biofilm formation over concentration range: synthetic peptide 0.4-112.5 µg/mL; for reduction of S. epidermidis biofilm formation over concentration range: maximum or range of reduction
Protocol: as §1

[4] = test system: P. aeruginosa PAO1; experiment: as above; type: cell-based, Pseudomonas aeruginosa; conditions: synthetic peptide 0.4-112.5 µg/mL, 18 h
Protocol: as §1

[5] = test system: S. aureus; experiment: Growth of planktonic-growing pathogens (turbidity at 600 nm); type: cell-based, Staphylococcus aureus; conditions: 18 h; for turbidity (600 nm), S. aureus: 112.5 µg/mL peptide, LB, 80 rpm, 37 °C, mean of 2 biological x 8 technical replicates, control 1.37192917
Protocol: as §2

[6] = test system: K. oxytoca; experiment: as above; type: cell-based, Klebsiella oxytoca; conditions: 112.5 µg/mL peptide, LB, 18 h, 80 rpm, 30 °C; mean of 2 biological x 8 technical replicates; control 1.21326667
Protocol: as §2

[7] = test system: P. aeruginosa; experiment: as above; type: cell-based, Pseudomonas aeruginosa; conditions: 18 h; for turbidity (600 nm), P. aeruginosa: 112.5 µg/mL peptide, LB, 80 rpm, 37 °C, mean of 2 biological x 8 technical replicates, control 1.2788369
Protocol: as §2

[8] = test system: S. aureus; experiment: Biofilm prevention in vitro assay (crystal violet, static); type: cell-based, Staphylococcus aureus; conditions: synthetic peptide 0.4-112.5 µg/mL, 18 h
Protocol: as §1

[9] = test system: K. oxytoca, P. aeruginosa, S. epidermidis, and S. aureus; experiment: Planktonic growth, statements on all pathogens; type: cell-based; conditions: 18 h; for effect on planktonic growth (in words), high concentration: 112.5 µg/mL, all strains
Protocol: as §2

[10] = test system: K. oxytoca M5aI; experiment: Dynamic biofilm formation in microfluidic flow cell (Syto9, CLSM); type: cell-based, Klebsiella oxytoca; conditions: peptide 10 ng/channel, GC medium, flow 15 µL/h, 24 h, 30 °C, mean ± SD of four biological x four technical replicates; for biofilm thickness: medium control 11 ± 6 µm; for biofilm volume: medium control 112 ± 62 µm^3
Description: The microfluidic flow cell system comprises a polymethyl methacrylate corpus with a single channel (1 × 8 × 0.1 mm). Two inlets and one outlet exist. A borosilicate glass (24 × 60 × 0.17 mm; Carl Roth, Karlsruhe, Germany) was fixed with the adhesive Black-Seal silicone (Weicon, Münster, Germany). Microliter syringes (Innovative Labor System GmbH, Stützenbach, Germany) were connected via polytetrafluoroethylene (PTFE) tubes (0.3 mm × 0.6 mm) (Bola, Grünsfeld, Germany) with the in- and outlets and clamped into a syringe pump (Model: 220) (KD Scientific, Holliston, MA, USA). The channel was sterilized by rinsing 70% EtOH for 24 h at a flow rate of 20 µL/h. Afterwards, the remaining ethanol was washed out with sterile water at 20 μL/h for 1 h. Subsequently, the channel was equilibrated with GC medium at 20 μL/h for 2 h. Inoculation was conducted with a cell suspension of 1 × 10^9 cells/mL, generated from an overnight culture of K. oxytoca M5aI. Initial cell adhesion was ensured by incubation at 30 °C for 1 h without any flow. Next, the channel was continuously rinsed at 15 μL/h with GC medium injected within the first inlet. The synthetic peptides IDR-1018 (biofilm-preventing control peptide, [47, 48], BiP_Aa_2, BiP_Aa_5, and BiP_Aa_6 were diluted in GC medium to a concentration of 25 µg/mL and injected within the second inlet. Thus, the final peptide concentration was 12.5 µg/mL, corresponding to 10 ng peptide within the 0.8 µL channel. Biofilm formation was conducted at a flow rate of 15 µL/h for 24 h at 30 °C. The biofilm formation of K. oxytoca M5aI was further studied without adding peptides. Four biological replicates were conducted for each treatment.
Biofilms were stained with the fluorescent dye Syto9 (488 nm) (Life Technologie, Carlsbad, CA, USA) and analyzed using the LSM 700 confocal laser scanning microscope (Zeiss, Oberkochen, Germany). Therefore, the microfluidic flow cells were washed with GC medium at 3 µL/min for 15 min. The channel was then filled with a 1:1000 dilution of the fluorescent dye Syto9 and incubated in the dark at RT for 30 min. Dye residues were removed by rinsing GC medium at 3 μL/min for 15 min. Four image stacks were recorded per flow cell with optical sections of 0.9 µm per z-step. The digital image acquisition, three-dimensional reconstruction, and calculation of the biofilm parameters were performed with the software “Zen Black” (version 14.0.22.201) (Zeiss, Oberkochen, Germany) and the microscopy image analysis software “Imaris” (version 9.9.0) (Oxford Instruments, Abingdon, UK).

[11] = test system: biofilm cells; conditions: cited from earlier work
Protocol: (§3) The biofilm prevention was assayed parallel to the well-described 12 amino acids’ cationic AMP (VRLIVAVRIWRR), named IDR-1018 [19, 47, 48]. This innate defense component is derived from the natural bovine peptide Bactenecin and was reported to show antibiofilm activity against P. aeruginosa, E. coli, Acinetobacter baumannii, K. pneumoniae, Methicillin-resistant S. aureus, Salmonella Typhimurium, and Burkholderia cenocepacia. The inhibitory activity of IDR-1018 is based on the induced dispersal of cells from biofilms at very low peptide concentrations (0.8 µg/mL). The underlying ...

[12] = test system: planktonic cells; conditions: weak direct antimicrobial activity on planktonic cells; cited from earlier work
Protocol: as §3

[13] = synthetic peptide 0.4-112.5 µg/mL
[14] = 112.5 µg/mL, versus control without peptide

Row | Sequence | effect on K. oxytoca biofilm formation (in words) [1, 13] | turbidity (600 nm), S. epidermidis [2] | effect on S. epidermidis biofilm formation (in words) [3] | effect on P. aeruginosa biofilm formation (in words) [4] | turbidity (600 nm), S. aureus [5] | turbidity (600 nm), K. oxytoca [6] | turbidity (600 nm), P. aeruginosa [7] | effect on S. aureus biofilm formation (in words) [8] | reduction of S. epidermidis biofilm formation over concentration range [3] | effect on planktonic growth (in words), high concentration [9] | reduction of K. oxytoca biofilm formation at 112.5 µg/mL ([1]; versus biofilm control (100%)) | biofilm thickness [10] | biofilm volume [10] | further results
1 | GRTTLYKKVGFFFFF [BiP_Ml_3, synthetic peptide from sORF of M. leidyi EST clone 010_9A] | no significant effect | 1.367 | growth increase at low peptide doses | no significant effect; also recorded: slight interference | 1.345 | 1.255 | 1.255 | no significant effect; also recorded: could not interfere with biofilm formation | – | – | – | – | – | reduction of S. epidermidis biofilm formation at 112.5 µg/mL ([3]; synthetic peptide at highest concentration 112.5 µg/mL, versus biofilm control (100%)): 38%; reduction of planktonic growth of S. aureus [5, 14]: 1.5–5%; reduction of planktonic growth of P. aeruginosa [7, 14]: 1.5–5%
2 | THSTMNFELHQRSIQSCSPKLL [BiP_Aa_4, synthetic peptide from sORF of A. aurita EST clone 127_8E] | limited effect | 1.386 | – | limited effect | 1.347 | 1.219 | 1.281 | limited effect; also recorded: could not interfere with biofilm formation | 23–47% | did not significantly inhibit planktonic growth | – | – | – | –
3 | TNFTRKFPVINSSPHQWYLKD [BiP_Aa_6, synthetic peptide from sORF of A. aurita EST clone 127_8H] | – | 1.393 | – | initially increased and then gradually decreased, approaching control levels | 1.38 | 1.2508 | 1.284 | – | 43% | did not significantly inhibit planktonic growth | 26% | ≤ 8 ± 1 µm | 64 ± 36 µm^3 | reduction of S. aureus biofilm formation over concentration range ([8]; maximum or overall reduction): 6–23%
4 | VRLIVAVRIWRR [IDR-1018, 12 amino acids' cationic AMP, biofilm-preventing control peptide derived from bovine Bactenecin, reference compound] | – | 1.203 | only affected to a minor extent | no interference; also recorded: almost unaffected | 1.036 | 1.187 | 1.23 | – | – | significantly reduced the planktonic growth of all strains | 70% | 6 ± 2 µm | 32 ± 16 µm^3 | reduction of K. oxytoca biofilm formation at 3.5 µg/mL ([1]; synthetic peptide 3.5 µg/mL, versus biofilm control (100%), on average): 30%; reduction of K. oxytoca biofilm formation over concentration range ([1]; synthetic peptide 0.4-112.5 µg/mL, maximum or overall reduction): 50%; effect on planktonic growth (in words), low concentration ([9]; 3.5 µg/mL, all pathogens): no effect was revealed; peptide concentration causing cell death of the biofilm cells ([11]; higher concentrations): 10 µg/mL; peptide concentration inducing dispersal of cells from biofilms ([11]; very low peptide concentrations): 0.8 µg/mL; MIC [12]: 19 µg/mL
